Measured values from the CheMixHub drug solubility set.

Assay: xn = mol fraction of the nth substance listed, in the solute-free solvent

COC(=O)Nc1nc2ccccc2[nH]1 + CCCO + O
solubility (g/100 g solution)
Conditions	278.15 K	283.15 K	288.15 K	293.15 K	298.15 K	303.15 K	308.15 K	313.15 K	318.15 K
x2 = 0.03228	0.000759	0.000937	0.00117	0.00145	0.00179	0.00212	0.00255	0.00307	0.00365
x2 = 0.06986	0.00122	0.00153	0.00195	0.00246	0.00308	0.00372	0.00456	0.00552	0.00671
x2 = 0.1138	0.00157	0.00198	0.00262	0.00333	0.00428	0.00526	0.0066	0.00814	0.01
x2 = 0.1665	0.0017	0.00223	0.00302	0.00394	0.00516	0.00653	0.00832	0.0105	0.0132
x2 = 0.2308	0.0017	0.00229	0.00318	0.00426	0.0057	0.00739	0.00966	0.0124	0.016
x2 = 0.3105	0.00161	0.00218	0.0032	0.00441	0.00599	0.00796	0.0107	0.0141	0.0185
x2 = 0.4108	0.00149	0.0021	0.00313	0.00441	0.00614	0.00837	0.0115	0.0155	0.0208
x2 = 0.5455	0.00136	0.00196	0.00302	0.00436	0.00622	0.0087	0.0123	0.0169	0.0232
x2 = 0.7314	0.00123	0.00179	0.00287	0.00425	0.00617	0.00889	0.0128	0.0181	0.0254

CC(C)C(=O)Nc1ccc([N+](=O)[O-])c(C(F)(F)F)c1 + CCO + O
solubility (g/100 g solution)
Conditions	278.15 K	283.15 K	288.15 K	293.15 K	298.15 K	303.15 K	308.15 K	313.15 K	318.15 K	323.15 K
x2 = 0.04165	0.00282	0.00366	0.00476	0.00623	0.00797	0.0102	0.0129	0.0162	0.0203	0.0251
x2 = 0.08908	0.0183	0.0236	0.0305	0.0388	0.0499	0.0632	0.0793	0.0976	0.122	0.148
x2 = 0.1436	0.0774	0.0967	0.124	0.158	0.199	0.246	0.305	0.377	0.462	0.568
x2 = 0.2068	0.289	0.358	0.447	0.563	0.694	0.851	1.04	1.26	1.54	1.86
x2 = 0.2812	0.894	1.09	1.34	1.62	1.93	2.32	2.77	3.31	3.89	4.58
x2 = 0.3698	2.17	2.59	3.2	3.88	4.59	5.48	6.38	7.52	8.74	10.2
x2 = 0.4772	4.83	5.78	6.84	8.03	9.49	11	12.8	14.7	16.8	19.1
x2 = 0.6101	8.9	10.5	12.3	14.3	16.5	19	21.5	24.4	27.2	30.6
x2 = 0.7788	13.7	15.9	18.4	21.1	24.4	27.7	30.7	34.4	38.1	41.7

Nc1cc(-c2ccncc2)c[nH]c1=O + CCO + O
solubility (g/100 g solution)
Conditions	278.15 K	283.15 K	288.15 K	293.15 K	298.15 K	303.15 K	308.15 K	313.15 K	318.15 K	323.15 K
x2 = 0.04165	0.00114	0.00134	0.00159	0.00187	0.00218	0.00251	0.00288	0.00327	0.00372	0.00424
x2 = 0.08908	0.00176	0.00207	0.00246	0.00288	0.00334	0.00384	0.0044	0.00498	0.00565	0.00642
x2 = 0.1436	0.00254	0.00304	0.00354	0.00413	0.00483	0.00549	0.00631	0.00722	0.00814	0.00941
x2 = 0.2068	0.00365	0.00427	0.00505	0.00593	0.00696	0.00785	0.009	0.0101	0.0116	0.0132
x2 = 0.2812	0.00514	0.00605	0.00709	0.0083	0.00956	0.0109	0.0125	0.014	0.0158	0.0179
x2 = 0.3698	0.0062	0.00747	0.00879	0.0103	0.0119	0.0137	0.0156	0.0178	0.0203	0.023
x2 = 0.4772	0.00811	0.00922	0.0108	0.0129	0.0146	0.0167	0.0193	0.0219	0.0247	0.0282
x2 = 0.6101	0.00938	0.0112	0.013	0.0153	0.0176	0.0202	0.0231	0.0259	0.029	0.033
x2 = 0.7788	0.0106	0.0125	0.0148	0.0174	0.0202	0.0229	0.026	0.0294	0.0329	0.0368

O=C1C=CC(=O)N1c1ccccc1Br + CCO + O
solubility (g/100 g solution)
Conditions	278.15 K	283.15 K	288.15 K	293.15 K	298.15 K	303.15 K	308.15 K	313.15 K	318.15 K	323.15 K
x2 = 0.04165	0.529	0.674	0.862	1.08	1.34	1.67	2.03	2.48	2.98	3.59
x2 = 0.08908	0.965	1.24	1.54	1.93	2.39	2.94	3.58	4.39	5.22	6.22
x2 = 0.1436	1.66	2.09	2.65	3.22	3.94	4.8	5.87	6.98	8.31	9.86
x2 = 0.2068	2.5	3.13	3.83	4.75	5.68	6.85	8.18	9.81	11.5	13.3
x2 = 0.2812	3.54	4.34	5.21	6.34	7.51	9.04	10.5	12.3	14.3	16.5
x2 = 0.3698	4.32	5.25	6.3	7.63	8.97	10.7	12.4	14.4	16.6	18.8
x2 = 0.4772	4.85	5.92	7.08	8.5	10	11.8	13.7	15.7	18.1	20.8
x2 = 0.6101	5.33	6.52	7.78	9.33	11	12.9	15.1	17.4	19.9	22.6
x2 = 0.7788	5.65	6.85	8.21	9.83	11.7	13.6	15.8	18.6	20.8	23.7
